Here are results for 43 compounds from ChEMBL document CHEMBL4765358, “Discovery of highly potent and selective antiparasitic new oxadiazole and hydroxy-oxindole small molecule hybrids” (Eur J Med Chem, 2020).

The subject of data set [1] is Trypanosoma cruzi. Kind of data set: Antitrypanosomal activity against Trypanosoma cruzi (MHOM/CH/00/Tulahuen C2, lacZ) amastigotes infected in HFF-1 cells assessed as reduction in parasite growth incubated for 120 hrs by CPRG/Igepal substrate based photometric method. The class given is functional, organism-based. The following applies: MHOM/CH/00/Tulahuen C2, HFF-1, 120 h.

The nature of data set [2]: Cytotoxicity against human HFF-1 cells assessed as reduction in cell viability incubated for 120 hrs by MTS assay. In kind it is cell-based.
In data set [3] the test system is Leishmania infantum. Description: Antileishmanial activity against Leishmania infantum MHOM/MA/67/ITMAP-263 infected in THP1 cells assessed as reduction in parasite growth incubated for 120 hrs by Giemsa staining based inverted microscopic analysis. The class given is functional, organism-based. The following applies: MHOM/MA/67/ITMAP-263, THP-1, 120 h.
Data set [4] in a line: Cytotoxicity against human HepG2 cells assessed as reduction in cell viability incubated for 120 hrs by MTS assay. The class given is cell-based.

On to `C=C(c1nc(-c2ccc(OC)cc2)no1)C(O)c1ccccc1C(F)(F)F` (stereo not given), for which the IC50 in data set [1] came to 8.8 µM; in data set [3], 8.55 µM. The half-maximal cytotoxic concentration (CC50) at 120 h in data set [2] and in data set [4] was above 64 µM each time.
For `C=C(c1nc(-c2ccccc2)no1)C1(O)C(=O)N(CC)c2ccc(C)cc21` (stereo not given), the IC50 in data set [1] is 16.6 µM; in data set [3] it was 6.01 µM. Moreover, the CC50 at 120 h in data set [2] is above 64 µM; in data set [4], 26.7 µM.
Turning to `C=C(c1nc(-c2ccc(OC)cc2)no1)C(O)c1ccccc1[N+](=O)[O-]` (stereo not given), the IC50 is above 100 µM in data set [1] and 2.38 µM in data set [3]. The CC50 at 120 h was 42.2 µM in data set [2] and 10.6 µM in data set [4].
On to `C=C(c1nc(-c2ccc([N+](=O)[O-])cc2)no1)C(O)c1ccccc1` (stereo not given), for which the IC50 in data set [1] is above 64 µM; in data set [3], 37.5 µM. In addition, the figures for the CC50 at 120 h in data set [2] and in data set [4] were above 64 µM and 27.1 µM, respectively.
For `C=Cc1nc(-c2ccccc2)no1`, the results for the IC50 in data set [1] and in data set [3] were 37.2 µM and above 64 µM, respectively. The CC50 at 120 h in data set [2] and in data set [4] was above 64 µM each time.
`C=C(c1nc(-c2ccccc2)no1)C(O)c1ccc(S(C)(=O)=O)cc1` (stereo not given): the IC50 is 64.4 µM in data set [1] and 8.47 µM in data set [3]. Moreover, the CC50 at 120 h is above 64 µM in data set [2] and 28.7 µM in data set [4].
As for `C=C(c1nc(-c2ccccc2)no1)C(O)c1ccc([N+](=O)[O-])cc1` (stereo not given), the results for the IC50 in data set [1] and in data set [3] were 7.8 µM and 10.4 µM, respectively. Also, the CC50 at 120 h is above 64 µM in data set [2] and 14.2 µM in data set [4].
The corresponding values for `C=C(c1nc(-c2ccccc2)no1)C(O)c1ccccc1` (stereo not given) are 8.2 µM, 9.81 µM, above 64 µM and 27.2 µM.
On to `C=C(c1nc(-c2ccc(Cl)cc2)no1)C1(O)C(=O)N(CC)c2ccc([N+](=O)[O-])cc21` (stereo not given), for which the figures for the IC50 in data set [1] and in data set [3] were above 64 µM and 6.48 µM, respectively. Further, the CC50 at 120 h in data set [2] is above 64 µM; in data set [4], 10.4 µM.
Take `C=C(c1nc(-c2ccccc2)no1)C(O)c1ccc(Cl)cc1` (stereo not given): the IC50 in data set [1] was found to be 57.5 µM; in data set [3] it was 6.92 µM. In addition, the CC50 at 120 h in data set [2] is above 64 µM; in data set [4] it was 10.1 µM.
For `C=C(c1nc(-c2ccccc2)no1)C1(O)C(=O)N(CC)c2ccc(OC(F)(F)F)cc21` (stereo not given), the results for the IC50 in data set [1] and in data set [3] were above 100 µM and 11.1 µM, respectively. The CC50 at 120 h was above 64 µM in data set [2] and 10.4 µM in data set [4].
Taken in the same sequence, the figures for `C=C(c1nc(-c2ccccc2)no1)C1(O)C(=O)N(CC)c2c(Cl)cccc21` (stereo not given) were above 100 µM, 4.85 µM, 62.1 µM and 13.5 µM.
The corresponding values for `C=C(c1nc(-c2ccc([N+](=O)[O-])cc2)no1)C1(O)C(=O)N(CC)c2ccc([N+](=O)[O-])cc21` (stereo not given) are above 64 µM, 7.36 µM, above 64 µM and 7.12 µM.
Taken in the same sequence, the figures for `C=C(c1nc(-c2ccc([N+](=O)[O-])cc2)no1)C(O)c1cc(OC)c(OC)c(OC)c1` (stereo not given) were above 64 µM, 52.6 µM, above 64 µM and 57.3 µM.
As to `C=C(c1nc(-c2ccccc2)no1)C(O)c1ccccc1[N+](=O)[O-]` (stereo not given), the IC50 in data set [1] was determined as 58.4 µM; in data set [3], 10.3 µM. For the same compound, the 50% cytotoxic concentration (CC50) at 120 h in data set [2] was above 64 µM; in data set [4] it was 14 µM.
The corresponding values for `C=C(c1nc(-c2ccccc2)no1)C(O)c1ccc(C#N)cc1` (stereo not given) are above 100 µM, 21.7 µM, above 64 µM and 32 µM.
Taken in the same sequence, the figures for `C=C(c1nc(-c2ccccc2)no1)C(O)CCCC` (stereo not given) were 19.3 µM, 35.9 µM, above 64 µM and above 64 µM.
As to `C=C(c1nc(-c2ccc([N+](=O)[O-])cc2)no1)C1(O)C(=O)N(CC)c2ccccc21` (stereo not given), the IC50 in data set [3] stood at 3.33 µM. Further, the CC50 at 120 h in data set [4] was 10.9 µM.
Consider `C=C(c1nc(-c2ccccc2)no1)C(O)c1ccc(Br)cc1` (stereo not given), for which the IC50 stood at 36.5 µM in data set [1] and 43.9 µM in data set [3]. Moreover, the CC50 at 120 h is above 64 µM in data set [2] and 41.1 µM in data set [4].
Consider `C=C(c1nc(-c2ccc(Cl)cc2)no1)C1(O)C(=O)N(CC)c2ccccc21` (stereo not given), for which the IC50 was found to be 23.6 µM in data set [1] and 4.01 µM in data set [3]. Moreover, the CC50 at 120 h is above 64 µM in data set [2] and 13.8 µM in data set [4].
Consider `C=C(c1nc(-c2ccccc2)no1)C1(O)C(=O)N(c2ccccc2)c2ccccc21` (stereo not given), for which the IC50 in data set [1] is 16.2 µM; in data set [3], 8.17 µM. For the same compound, the CC50 at 120 h in data set [2] came to 27.9 µM; in data set [4] it was 14.1 µM.
Taken in the same sequence, the figures for `C=C(c1nc(-c2ccccc2)no1)C(O)c1ccc(Cl)c(F)c1` (stereo not given) were 27 µM, 18.9 µM, above 64 µM and 27.8 µM.
For `C=C(c1nc(-c2ccc([N+](=O)[O-])cc2)no1)C(O)c1nccs1` (stereo not given), the values for the IC50 in data set [1] and in data set [3] were 37.1 µM and above 64 µM, respectively. Moreover, the CC50 at 120 h in data set [2] and in data set [4] was above 64 µM in each case.
Turning to `C=C(c1nc(-c2ccc(OC)cc2)no1)C1(O)C(=O)N(CC)c2ccc([N+](=O)[O-])cc21` (stereo not given), the IC50 in data set [1] was above 64 µM; in data set [3] it was 25.9 µM. Moreover, the results for the cytotoxic concentration (CC50) at 120 h in data set [2] and in data set [4] were above 64 µM and 13.6 µM, respectively.
Take `C=C(c1nc(-c2ccccc2)no1)C(O)c1ccc(OC)cc1` (stereo not given): the IC50 in data set [1] was 81.3 µM; in data set [3] it was 18 µM. Besides, the results for the CC50 at 120 h in data set [2] and in data set [4] were above 64 µM and 33.6 µM, respectively.
In the case of `C=C(c1nc(-c2ccccc2)no1)C1(O)C(=O)N(CC)c2c(Cl)cc(Cl)cc21` (stereo not given), the IC50 in data set [1] was above 100 µM; in data set [3], 4.1 µM. Moreover, the half-maximal cytotoxic concentration (CC50) at 120 h was above 64 µM in data set [2] and 6.77 µM in data set [4].
For `COc1cccc2c1C(=O)c1c(O)c3c(c(O)c1C2=O)C[C@@](O)(C(=O)CO)C[C@@H]3O[C@H]1C[C@H](N)[C@H](O)[C@H](C)O1` [DOXORUBICIN], the CC50 at 120 h was determined as 0.53 µM in data set [2] and 0.77 µM in data set [4].
For the compound `C=C(c1nc(-c2ccc(OC)cc2)no1)C1(O)C(=O)N(CC)c2ccccc21` (stereo not given), the IC50 in data set [1] is above 64 µM; in data set [3], 2.85 µM. The values for the cytotoxic concentration (CC50) at 120 h in data set [2] and in data set [4] were above 64 µM and 26.9 µM, respectively.
Turning to `C=C(c1nc(-c2ccccc2)no1)C(O)c1cccc(F)c1` (stereo not given), the IC50 in data set [1] is above 100 µM; in data set [3], 7.29 µM. Moreover, the CC50 at 120 h was above 64 µM in data set [2] and 14.1 µM in data set [4].
With `C=C(c1nc(-c2ccc(OC)cc2)no1)C(O)c1ccc(C#N)cc1` (stereo not given), the values for the IC50 in data set [1] and in data set [3] were above 100 µM and 3.89 µM, respectively. The results for the CC50 at 120 h in data set [2] and in data set [4] were above 64 µM and 13.6 µM, respectively.
Regarding `C=C(c1nc(-c2ccccc2)no1)C(O)c1cc2c(cc1Br)OCO2` (stereo not given), the half-inhibitory concentration (IC50) turned out to be 17.6 µM in data set [1] and 8.93 µM in data set [3]. In addition, the CC50 at 120 h was above 64 µM in data set [2] and 58.5 µM in data set [4].
Regarding `C=C(c1nc(-c2ccccc2)no1)C1(O)C(=O)N(C)c2ccccc21` (stereo not given), the IC50 in data set [1] was above 64 µM; in data set [3] it was 51.4 µM. Further, the figures for the CC50 at 120 h in data set [2] and in data set [4] were 53.8 µM and 6.73 µM, respectively.
On to `C=C(c1nc(-c2cc(OC)c(OC)c(OC)c2)no1)C(O)c1ccccc1` (stereo not given), for which the IC50 is above 100 µM in data set [1] and 12 µM in data set [3]. The values for the half-maximal cytotoxic concentration (CC50) at 120 h in data set [2] and in data set [4] were above 64 µM and 27.4 µM, respectively.
Consider `C=C(c1nc(-c2ccccc2)no1)C1(O)C(=O)N(CC)c2ccc(F)cc21` (stereo not given), for which the IC50 in data set [1] is 14.8 µM; in data set [3] it was 3.51 µM. The CC50 at 120 h in data set [2] was above 64 µM; in data set [4], 9.37 µM.
`C=C(c1nc(-c2ccccc2)no1)C(O)/C=C/c1ccccc1` (stereo not given): the IC50 was determined as 55.7 µM in data set [1] and 20.6 µM in data set [3]. Besides, the CC50 at 120 h in data set [2] is above 64 µM; in data set [4], 30.3 µM.
With `CCCCCCCCCCCCCCCCOP(=O)([O-])OCC[N+](C)(C)C` [MILTEFOSINE], the IC50 in data set [3] was found to be 2.3 µM.
In the case of `C=C(c1nc(-c2ccccc2)no1)C(O)c1ccccn1` (stereo not given), the IC50 is above 100 µM in data set [1] and 17.9 µM in data set [3]. The CC50 at 120 h is 30.1 µM in data set [2] and 58.6 µM in data set [4].
Consider `C=C(c1nc(-c2ccccc2)no1)C1(O)C(=O)N(CC)c2c(Br)cccc21` (stereo not given), for which the values for the IC50 in data set [1] and in data set [3] were above 100 µM and 10.4 µM, respectively. Further, the figures for the CC50 at 120 h in data set [2] and in data set [4] were 21.5 µM and 22.8 µM, respectively.
Consider `C=C(c1nc(-c2ccc(OC)cc2)no1)C(O)c1ccccc1` (stereo not given), for which the figures for the IC50 in data set [1] and in data set [3] were above 100 µM and 11.5 µM, respectively. Besides, the values for the CC50 at 120 h in data set [2] and in data set [4] were 55.1 µM and 39.6 µM, respectively.
As for `C=C(c1nc(-c2ccc(Cl)cc2)no1)C1(O)C(=O)N(CC)c2ccc(OC)cc21` (stereo not given), the values for the IC50 in data set [1] and in data set [3] were 28.4 µM and 5.09 µM, respectively. Further, the CC50 at 120 h came to 40.7 µM in data set [2] and 11.5 µM in data set [4].
As for `C=C(c1nc(-c2ccccc2)no1)C1(O)C(=O)N(CC)c2ccc(OC)cc21` (stereo not given), the concentration for half-maximal inhibition (IC50) was above 100 µM in data set [1] and 7.29 µM in data set [3]. Further, the CC50 at 120 h in data set [2] was above 64 µM; in data set [4] it was 13.5 µM.
`C=Cc1nc(-c2ccc(OC)cc2)no1`: the IC50 in data set [1] stood at 15.6 µM; in data set [3] it was 25.2 µM. The CC50 at 120 h in data set [2] was above 64 µM; in data set [4], 58 µM.
As for `C=C(c1nc(-c2ccccc2)no1)C1(O)C(=O)N(CC)c2ccc(Cl)cc21` (stereo not given), the half-inhibitory concentration (IC50) in data set [1] is above 100 µM; in data set [3] it was 2.5 µM. Besides, the CC50 at 120 h in data set [2] was above 64 µM; in data set [4] it was 6.78 µM.
